Experimental data from patent US20060292657A1, “Phex substrates and methods using same” (priority 2003, published 2006).
Square brackets hold non-standard residues; d marks the D form. Peptide text beside a SMILES is read from it. * marks the point of attachment. Dnp = O=[N+]([O-])c1ccc(*)c([N+](=O)[O-])c1; 2Abz = Nc1ccccc1C(=O)O

Molecular target: T1, secPHEX (Homo sapiens, UniProt P78562)
T1 construct: pure soluble form of PHEX (secPHEX); made in house
T1 sequence (P78562 46-749 limits assumed): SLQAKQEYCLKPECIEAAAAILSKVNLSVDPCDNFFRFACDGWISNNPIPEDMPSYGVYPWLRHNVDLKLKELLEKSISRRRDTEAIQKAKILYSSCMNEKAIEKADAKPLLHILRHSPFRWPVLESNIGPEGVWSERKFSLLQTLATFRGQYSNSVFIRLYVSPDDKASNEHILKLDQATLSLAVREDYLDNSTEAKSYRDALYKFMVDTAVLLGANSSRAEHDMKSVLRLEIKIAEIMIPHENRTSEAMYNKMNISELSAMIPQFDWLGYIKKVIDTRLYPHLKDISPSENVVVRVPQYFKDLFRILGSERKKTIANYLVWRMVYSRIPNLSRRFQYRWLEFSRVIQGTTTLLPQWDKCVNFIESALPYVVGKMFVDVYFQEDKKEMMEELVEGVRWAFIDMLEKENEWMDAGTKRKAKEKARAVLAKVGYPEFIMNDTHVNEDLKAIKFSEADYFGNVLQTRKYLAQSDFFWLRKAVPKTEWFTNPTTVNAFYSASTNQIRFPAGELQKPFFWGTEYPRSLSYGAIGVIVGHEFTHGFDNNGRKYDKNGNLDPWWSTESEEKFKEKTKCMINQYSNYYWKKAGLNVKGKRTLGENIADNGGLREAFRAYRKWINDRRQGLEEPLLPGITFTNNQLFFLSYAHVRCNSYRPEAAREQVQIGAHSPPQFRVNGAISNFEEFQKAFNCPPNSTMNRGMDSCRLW
Experiment: Kinetic parameters for hydrolysis of internally quenched fluorogenic peptides by secPHEX
Format: biochemical
Settings: for hydrolysis by secPHEX (result in words): 37° C., 10 mM Bis-Tris buffer pH 5.5, 150 mM NaCl
Procedure: The human recombinant secPHEX was obtained following the procedure previously described (17, WO 00/50580). Purified secPHEX concentration was determined using the Bradford method (DC protein assay kit; Bio-Rad, Mississauga, ON, Canada). Membrane-bound recombinant human PHEX was expressed in LLC-PK1 cells (17, (WO 00/50580)) and membranes were prepared essentially as described by Guo et al. (34). Briefly, transfected cells resuspended in lysis buffer (150 mM NaCl, 20 mM Tris.HCl, pH 7.6) were disrupted by sonication. Cell debris were removed by centrifugation at 300 g for 15 min at 4 °C. Membranes were collected by centrifugation at 30,000 g for 50 min and solubilized for 2h with 1% n-dodecyl-β-D-maltoside in lysis buffer. Insoluble material was pelleted by centrifugation at 10,000 g for 15 min and protein concentrations of the supernatant determined using the Bradford method described above. PHEX amounts were evaluated by immunoblotting as described previously (17). NEP expression and purification were performed as described previously (36).
The hydrolysis of the IQFPs, at 37° C., in 10 mM Bit-Tris buffer pH 5.5 (0.35 to 1.0 ml final volume) containing 150 mM NaCl, was continuously followed measuring the fluorescence at γem=420 nm and γex=320 nm in a Hitachi F-2000™ spectrofluorometer. The cuvefte containing the buffer and the substrate was placed in a thermostatically controlled cell compartment for 5 min before the addition of the enzyme and the increase in fluorescence with time was continuously recorded for 5-10 min. The enzyme concentration for initial rate determination was chosen at a level intended to hydrolyze less than 5% of the substrate present. […] The kinetic parameters Km and kcat were calculated by the non-linear regression data analysis Grafit program (42). The kcat/Km values were calculated as the ratio of these two determined parameters. The apparent second order rate constant kcat/Km (*kIt/Km) was determined under pseudo first-order conditions, where [S]<<Km. […]

Row | Structure (SMILES) | hydrolysis by secPHEX (result in words) | hydrolysis by secPHEX (result in words) (listed as Abz-GFSEYK(Dnp)-NH2) | decrease in catalytic efficiency compared with Abz-GFSDYK(Dnp)-OH (COOH-terminus amidated analogue)
1 | NC(=O)[C@H](CCCCNc1ccc([N+](=O)[O-])cc1[N+](=O)[O-])NC(=O)[C@H](Cc1ccc(O)cc1)NC(=O)[C@H](CCC(=O)O)NC(=O)[C@H](CO)NC(=O)[C@H](Cc1ccccc1)NC(=O)CNC(=O)c1ccccc1N [V-Abz-GFSEYK(Dnp)-NH2, Abz-GFSEYK(Dnp)-NH2] (H-[2Abz]GFSEYK(Dnp)-NH2) | Resistant | resistant to hydrolysis | –
2 | NC(=O)[C@H](CCCCNc1ccc([N+](=O)[O-])cc1[N+](=O)[O-])NC(=O)[C@H](Cc1ccc(O)cc1)NC(=O)[C@H](CC(=O)O)NC(=O)[C@H](CO)NC(=O)[C@H](Cc1ccccc1)NC(=O)CNC(=O)c1ccccc1N [II-Abz-GFS↓DYK(Dnp)-NH2, Abz-GFSDYK(Dnp)-NH2] (H-[2Abz]GFSDYK(Dnp)-NH2) | – | – | 6 fold
